Experimental data published in patent US20230399341A1, “7-PHENYL SUBSTITUTED 2-AMINOQUINAZOLINE INHIBITORS OF HPK1” (MERCK SHARP & DOHME LLC, priority 2020, published 2023).
pIC50: −log10 of the molar value. Each block holds one compound with its values, some of them ahead of it.

Molecular target: T1, Human HPK1, catalytic domain (Homo sapiens, UniProt Q92918)
T1 sequence (Q92918 1-346): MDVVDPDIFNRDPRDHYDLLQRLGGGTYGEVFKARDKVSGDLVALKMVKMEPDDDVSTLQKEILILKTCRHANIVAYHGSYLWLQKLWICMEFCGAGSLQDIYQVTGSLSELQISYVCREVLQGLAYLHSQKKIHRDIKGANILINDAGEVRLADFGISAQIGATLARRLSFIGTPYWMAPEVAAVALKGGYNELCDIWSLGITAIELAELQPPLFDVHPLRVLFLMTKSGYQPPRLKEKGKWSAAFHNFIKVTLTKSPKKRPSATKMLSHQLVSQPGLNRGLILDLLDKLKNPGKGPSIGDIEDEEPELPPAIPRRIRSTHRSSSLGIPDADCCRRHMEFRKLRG
Test: HPK1-SLP76 TR-FRET Assay
Assay type: biochemical
Conditions: 75 pM HPK1, ATP 10 uM, SLP76 10 nM, 30 min pre-incubation, 60 min reaction

Compound: Cc1c(-c2cc3nc(Nc4cnc5c(c4)CN(C)CC5)ncc3cc2F)cnc2c1NCCO2 [Compound 1-135, 6-fluoro-7-(8-methyl-2,3-dihydro-1H-pyrido[2,3-b][1,4]oxazin-7-yl)-N-(6-methyl-5,6,7,8-tetrahydro-1,6-naphthyridin-3-yl)quinazolin-2-amine]
pIC50: 9.32

Compound: CNC(=O)C(C)(C)c1ccc(Nc2ncc3c(N)c(F)c(-c4cnc5c(c4C)NCCO5)cc3n2)cc1 [Compound 2-187, 2-(4-{[5-amino-6-fluoro-7-(8-methyl-2,3-dihydro-1H-pyrido[2,3-b][1,4]oxazin-7-yl)quinazolin-2-yl]amino}phenyl)-N,2-dimethylpropanamide]
pIC50: 10.09

Compound: COc1cc2c(cc1Nc1ncc3ccc(-c4ccc5c(c4)COCC5)cc3n1)CNCC2 [Compound 1-76, 7-(3,4-dihydro-1H-2-benzopyran-7-yl)-N-(6-methoxy-1,2,3,4-tetrahydroisoquinolin-7-yl)quinazolin-2-amine]
pIC50: 6.66

Compound: COc1cc2c(cc1Nc1ncc3ccc(NCC4CNC(=O)O4)cc3n1)CN(C)CC2 (racemic) [Compound 3-26, (S and R)-5-[({2-1(6-methoxy-2-methyl-1,2,3,4-tetrahydroiso-quinolin-7-yl)amino]quinazolin-7-yl}amino)methyl]-1,3-oxazol-idin-2-one]
pIC50: 6.83

Compound: COc1cc(C2CCN(C)C2=O)ccc1Nc1ncc2c(N)c(F)c(-c3cnc4c(c3C)NCCO4)cc2n1 (single isomer, unassigned) [Compound 2-57, (R or S)-3-(4-{[5-amino-6-fluoro-7-(8-methyl-2,3-dihydro-1H-pyrido[2,3-b][1,4]oxazin-7-ylquinazolin-2-yl]amino}-3-methoxyphenyl)-1-methylpyrrolidin-2-one]
pIC50: 9.04

Compound: COc1cc2c(cc1Nc1ncc3ccc(NCC4(C)CCOC4)cc3n1)CN(C)CC2 (racemic) [Compound 3-75, (S and R)-N~2~-(6-methoxy-2-methyl-1,2,3,4-tetrahydroiso-quinolin-7-yl)-N~7~-[(3-meth-yloxolan-3-yl)methyl]quinaz-oline-2,7-diamine]
pIC50: 7.05

Compound: Cc1c(-c2cc3nc(Nc4cc5c(cc4F)CCN(C)C5)ncc3c(N)c2F)cnc2c1NCCO2 [Compound 2-59, 6-fluoro-N~2~-(6-fluoro-2-methyl-1,2,3,4-tetrahydroisoquinolin-7-yl)-7-(8-methyl-2,3-dihydro-1H-pyrido[2,3-b][1,4]oxazin-7-yl)quinazoline-2,5-diamine]
pIC50: 10.29

Compound: COc1cc2c(cc1Nc1ncc3c(N)c(F)c(-c4cnc5c(c4C)NCCO5)c(Cl)c3n1)CN(C)CC2(C)C [Compound 2-104, 8-chloro-6-fluoro-N2-(6-methoxy-2,4,4-trimethyl-1,2,3,4-tetrahydroisoquinolin-7-yl)-7-(8-methyl-2,3-dihydro-1H-pyrido[2,3-b][1,4]oxazin-7-yl)quinazoline-2,5-diamine]
pIC50: 9.10

Compound: CCS(=O)(=O)Cc1ccc(Nc2ncc3c(N)c(F)c(-c4cnc5c(c4C)NCCO5)c(Cl)c3n2)cc1 [Compound 2-134]
pIC50: 7.24

Compound: COc1cc2c(cc1Nc1ncc3ccc(NC4(C(=O)N(C)C)CC4)cc3n1)CN(C)CC2 [Compound 3-66, 1-({2-[(6-methoxy-2-methyl-1,2,3,4-tetrahydroisoquinolin-7-yl)amino]quinazolin-7-yl}-amino)-N,N-dimethylcyclopro-pane-1-carboxamide]
pIC50: 6.53

Compound: COc1cc2c(cc1Nc1ncc3c(N)cc(-c4cncc(N)c4C)cc3n1)CN(C)CC2 [Compound 2-39, 7-(5-amino-4-methylpyridin-3-yl)-N~2~- (6-methoxy-2-methyl-1,2,3,4-tetrahydroisoquinolin-7-yl)quinazoline-2,5-diamine]
pIC50: 9.03

Compound: COc1cc2c(cc1Nc1ncc3ccc(-c4cncc(CO)c4)cc3n1)CNCC2 [Compound 1-53, (5-{2-[(6-methoxy-1,2,3,4-tetrahydroisoquinolin-7-yl)amino]quinazolin-7-yl}pyridin-3-yl)methanol]
pIC50: 8.25

Compound: Cc1c(N)cncc1-c1cc2nc(Nc3ccc4c(c3)CN(C)CC43CC3)ncc2c(N)c1F [Compound 2-153, 7-(5-amino-4-methylpyridin-3-yl)-6-fluoro-N~2~-(2′-methyl-2′,3′-dihydro-1′H-spiro[cyclopropane-1,4′-isoquinolin]-7′-yl)quinazoline-2,5-diamine]
pIC50: 10.33

Compound: COc1cc2c(cc1Nc1ncc3ccc(-c4cc(F)ccc4CN)cc3n1)CN(C)CC2 [Compound 1-7, 7-[2-(aminomethyl)-5-fluorophenyl]-N-(6 methoxy-2-methyl-1,2,3,4-tetrahydroisoquinolin-7-yl)quinazolin-2-amine]
pIC50: 6.61

Compound: Cc1c(-c2cc3nc(Nc4ccc(C5CCN(C)C5=O)cc4)ncc3c(N)c2F)cnc2c1NCCO2 (single isomer, unassigned) [Compound 2-147, (R or S)-3-(4-{[5-amino-6-fluoro-7-(8-methyl-2,3-dihydro-1H-pyrido[2,3-b][1,4]oxazin-7-yl)quinazolin-2-yl]amino}phenyl)-1-methylpyrrolidin-2-one]
pIC50: 10.12

More lines, now with the values ahead:

pIC50: 10.42
Compound: Cc1c(-c2cc3nc(Nc4ccc5c(c4)CN(C)C(C)C5)ncc3c(N)c2F)cnc2c1NCCO2 (single isomer, unassigned) [Compound 2-86, (R or S)—N2-(2,3-dimethyl-1,2,3,4-tetrahydroisoquinolin-7-yl)-6-fluoro-7-(8-methyl-2,3-dihydro-1H-pyrido[2,3-b][1,4]oxazin-7-yl)quinazoline-2,5-diamine]

pIC50: 7.01
Compound: COc1cc2c(cc1Nc1ncc3ccc(NC4CCN(C)C4=O)cc3n1)CN(C)CC2 (racemic) [Compound 3-56, (S and R)-3-({2-[(6-methoxy-2-methyl-1,2,3,4-tetrahydroiso-quinolin-7-yl)amino]quinazolin-7-yl}amino)-1-methylpyrrolidin-2-one]

pIC50: 10.60
Compound: Cc1c(-c2cc3nc(Nc4ccc5c(c4)C4CCC5N4C)ncc3c(N)c2F)cnc2c1NCCO2 (centres unmarked) [Compound 2-121, 6-fluoro-7-(8-methyl-2,3-dihydro-1H-pyrido[2,3-b][1,4]oxazin-7-yl)-N~2~- (9-methyl-1,2,3,4-tetrahydro-1,4-epiminonaphthalen-6-yl)quinazoline-2,5-diamine]

pIC50: 6.80
Compound: COc1cc2c(cc1Nc1ncc3ccc(OCC4CCN(c5cncc(C)n5)CC4)cc3n1)CN(C)CC2 [Compound 4-4, N-(6-methoxy-2-methyl-1,2,3,4-tetrahydroisoquin-olin-7-yl)-7-{[1-(6-methyl-pyrazin-2-yl)piperidin-4-yl]methoxy}quinazolin-2-amine]

pIC50: 6.62
Compound: COc1cc2c(cc1Nc1ncc3ccc(NC4(C)COC4)cc3n1)CN(C)CC2 [Compound 3-55, N~2~-(6-methoxy-2-methyl-1,2,3,4-tetrahydroisoquinolin-7-yl)-N~7~-(3-methyloxetan-3-yl)quinazoline-2,7-diamine]

pIC50: 6.34
Compound: COc1cc2c(cc1Nc1ncc3ccc(-c4cc(NC(C)=O)ccc4C)cc3n1)CNCC2 [Compound 1-85, N-(3-{2-[(6-methoxy-1,2,3,4-tetrahydroisoquinolin-7-yl)amino]quinazolin-7-yl}-4-methylphenyl)acetamide]

pIC50: 7.15
Compound: Cc1c(-c2c(F)c(N)c3cnc(Nc4ccc(CC(C)(C)O)cc4)nc3c2Cl)cnc2c1NCCO2 [Compound 2-167, 1-(4-{[5-amino-8-chloro-6-fluoro-7-(8-methyl-2,3-dihydro-1H-pyrido[2,3-b][1,4]oxazin-7-yl)quinazolin-2-yl]amino}phenyl)-2-methylpropan-2-ol]

pIC50: 7.52
Compound: COc1cc2c(cc1Nc1ncc3ccc(Nc4ccc5c(c4)C(=O)NCC5)cc3n1)CN(C)CC2 [Compound 3-21, 7-({2-[(6-methoxy-2-methyl-1,2,3,4-tetrahydroisoquinolin-7-yl)amino]quinazolin-7-yl}-amino)-3,4-dihydroisoquinolin-1(2H)-one]

pIC50: 6.68
Compound: COc1cc2c(cc1Nc1ncc3ccc(-c4cccc(N5CCOCC5)c4)cc3n1)CNCC2 [Compound 1-91, N-(6-methoxy-1,2,3,4-tetrahydroisoquinolin-7-yl)-7-[3-(morpholin-4-yl)phenyl]quinazolin-2-amine]

pIC50: 10.52
Compound: Cc1c(-c2cc3nc(Nc4ccc5c(c4)C4CC5CN4C)ncc3c(N)c2F)cnc2c1NCCO2 (racemic) [Compound 2-79, (R,S and S,R)-6-fluoro-N2-(2-methyl-1,2,3,4-tetrahydro-1,4-methanoisoquinolin-7-yl)-7-(8-methyl-2,3-dihydro-1H-pyrido[2,3-b][1,4]oxazin-7-yl)quinazoline-2,5-diamine]

pIC50: 6.41
Compound: COc1cc2c(cc1Nc1ncc3ccc(N4CC5(CCOC5)OC4=O)cc3n1)CN(C)CC2 (racemic) [Compound 3-3, (S and R)-3-{2-[(6-methoxy-2-methyl-1,2,3,4-tetrahydroiso-quinolin-7-yl)amino]quinazolin-7-yl}-1,7-dioxa-3-azaspiro[4.4]-nonan-2-one]

pIC50: 8.49
Compound: COc1cc2c(cc1Nc1ncc3ccc(-c4cncc(CN)c4)cc3n1)CNCC2 [Compound 1-49, 7-[5-(aminomethyl)pyridin-3-yl]-N-(6-methoxy-1,2,3,4-tetrahydroisoquinolin-7-yl)quinazolin-2-amine]

pIC50: 7.62
Compound: CCN(CC)S(=O)(=O)c1cccc(-c2ccc3cnc(Nc4cc5c(cc4OC)CCNC5)nc3c2)c1 [Compound 1-80, N,N-diethyl-3-{2-[(6-methoxy-1,2,3,4-tetrahydroisoquinolin-7-yl)amino]quinazolin-7-yl}benzene-1-sulfonamide]

pIC50: 8.03
Compound: COc1cc2c(cc1Nc1ncc3ccc(N4CC(CO)OC4=O)cc3n1)CN(C)CC2 (racemic) [Compound 3-4, (S and R)-5-(hydroxymethyl)-3-{2-[(6-methoxy-2-methyl-1,2,3,4-tetrahydroisoquinolin-7-yl)amino]quinazolin-7-yl}-1,3-oxazolidin-2-one]
